{
  "source": "patent EP2435433B1",
  "about": "“(DIHYDRO)IMIDAZOISO[5,1-A]QUINOLINES AS FSH RECEPTOR AGONISTS FOR THE TREATMENT OF FERTILITY DISORDERS” (Merck Sharp & Dohme B.V., priority 2009, dated 2010)",
  "molecular_target": "T1, human FSH receptor (Homo sapiens, UniProt P23945)",
  "T1 construct": "expressed in transfected cells; host or cells: Chinese Hamster Ovary (CHO) cells, stably transfected, cotransfected with CRE/promotor-firefly luciferase reporter",
  "T1 sequence (P23945 18-695)": "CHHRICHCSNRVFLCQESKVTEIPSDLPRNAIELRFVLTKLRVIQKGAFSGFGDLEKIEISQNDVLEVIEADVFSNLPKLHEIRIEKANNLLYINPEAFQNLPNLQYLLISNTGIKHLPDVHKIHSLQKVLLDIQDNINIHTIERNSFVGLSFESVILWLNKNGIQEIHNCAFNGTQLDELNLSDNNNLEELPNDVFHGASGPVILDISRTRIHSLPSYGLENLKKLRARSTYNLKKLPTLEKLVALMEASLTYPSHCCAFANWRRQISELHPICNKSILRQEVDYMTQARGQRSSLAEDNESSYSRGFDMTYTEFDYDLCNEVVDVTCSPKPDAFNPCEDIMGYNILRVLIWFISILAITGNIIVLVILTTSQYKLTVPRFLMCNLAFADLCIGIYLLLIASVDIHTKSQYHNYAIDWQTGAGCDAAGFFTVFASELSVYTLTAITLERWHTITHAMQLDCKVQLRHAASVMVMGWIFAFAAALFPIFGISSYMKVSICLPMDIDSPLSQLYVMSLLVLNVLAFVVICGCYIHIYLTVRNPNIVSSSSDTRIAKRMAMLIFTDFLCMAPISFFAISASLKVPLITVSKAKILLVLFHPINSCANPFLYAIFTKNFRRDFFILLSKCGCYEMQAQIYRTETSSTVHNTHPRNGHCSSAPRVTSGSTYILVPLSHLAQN",
  "assay": "Agonistic activity of compounds at the human FSH receptor expressed in CHO cells, CRE/luciferase reporter (hFSHRago (CHO luc))",
  "type": "cell-based",
  "excerpt": "The term EC50 means the concentration of the test compound that elicits half-maximal (50 %) stimulation compared to the compound's maximally attainable effect. The values can be determined e.g. in a cell line transfected with a FSH receptor gene and cotransfected with a cAMP responsive element/promoter directing the expression of a reporter gene. Values can be determined using a software program such as MathIQ (version 2.0, ID Business Solutions Limited).\nAgonistic activity of the compounds at the human FSH receptor was determined in Chinese Hamster Ovary (CHO) cells stably transfected with the human FSH receptor and cotransfected with a cAMP responsive element (CRE)/promotor directing the expression of a firefly luciferase reporter gene. Binding of the compounds to the Gs protein-coupled FSH receptor will result in an increase of cAMP, which in turn will induce an increased transactivation of the luciferase reporter. Cells (7,500 cells/well of a 384 well plate) were incubated in Dulbecco' minimal essential F12 modified medium (Invitrogen), supplemented with 1 µg/ml bovine insulin, 5 µg/ml human apo-transferrin, 80 U/ml penicillin G and 80 µg/ml streptomycin with the test compounds (concentration between 0.0316 nM and 10.0 µM) in duplicate in a humidified atmosphere (95%) at 5-7% CO2 and 37°C. The final concentration of DMSO was 1%. After 4 hours of incubation, plates were allowed to adjust to room temperature for 1 hour. Then, Luclite (PerkinElmer) solution was added to the wells and cells were allowed to lyse for at least 1 hour at room temperature. Subsequently, luciferase activity was measured in a luminescence counter. The signal is expressed as counts per second (cps). The EC50 (concentration of the test compound that elicits half-maximal (50 %) luciferase stimulation compared to the compound's maximally attainable effect) and efficacy values (maximal effect of the test compound as percentage of the maximal effect of recombinant human FSH) of the compounds were determined using the software program MathIQ (version 2.0, ID Business Solutions Limited). EC50 data are indicated at the synthesis examples.",
  "key": {"[1]": {"conditions": "CHO cells stably transfected with the human FSH receptor and CRE/firefly luciferase reporter, 4 hours of incubation, half-maximal stimulation relative to the compound's own maximal effect, read-out: hFSHRago (CHO luc) EC50"}},
  "note": "Where two headings read alike, the source gives them in different places.",
  "data": [
    {"compound": "COc1cc2c(cc1OCCN=[N+]=[N-])-c1c(-c3cccs3)nc(C(=O)N(C)C(C)(C)C)n1CC2", "note": "[Example 30e, 9-(2-Azido-ethoxy)-8-methoxy-1-thiophen-2-yl-5,6-dihydro-imidazo[5,1-a]isoquinoline-3-carboxylic acid tert-butyl-methyl-amide]", "values": [
      {"measurement": "EC50", "setting": "[1]", "result": 15, "unit": "nM"}
    ]},
    {"compound": "CCN(C)CC(=O)Nc1cc2c(cc1OC)CCn1c(C(=O)N(C)C(C)(C)C)nc(-c3cccs3)c1-2", "note": "[Example 13b, 9-[2-(Ethyl-methyl-amino)-acetylamino]-8-methoxy-1-thiophen-2-yl-5,6-dihydro-imidazo[5,1-a]isoquinoline-3-carboxylic acid tert-butyl-methyl-amide]", "values": [
      {"measurement": "EC50", "setting": "[1]", "result": 26, "unit": "nM"}
    ]},
    {"compound": "COc1cc2c(cc1N1CCOCC1)-c1c(-c3cccs3)nc(C(=O)N(C)C(C)(C)C)n1CC2", "note": "[Example 45, 8-Methoxy-9-morpholin-4-yl-1-thiophen-2-yl-5,6-dihydro-imidazo[5,1-a]isoquinoline-3-carboxylic acid tert-butyl-methyl-amide]", "values": [
      {"measurement": "EC50", "setting": "[1]", "result": 113, "unit": "nM"}
    ]},
    {"compound": "COc1cc2c(cc1-c1cccc(N3CCN(C(=O)OC(C)(C)C)CC3)c1)-c1c(-c3cccs3)nc(C(=O)N(C)C(C)(C)C)n1CC2", "note": "[Example 2o]", "values": [
      {"measurement": "EC50", "setting": "[1]", "result": 14, "unit": "nM"}
    ]},
    {"compound": "COc1cc2c(cc1-c1cccc(C(=O)N(C)C)c1)-c1c(-c3cccs3)nc(C(=O)N(C)C(C)(C)C)n1CC2", "note": "[Example 2n, 9-(3-Dimethylcarbamoyl-phenyl)-8-methoxy-1-thiophen-2-yl-5,6-dihydro-imidazo[5,1-a]iso-quinoline-3-carboxylic acid tert-butyl-methyl-amide]", "values": [
      {"measurement": "EC50", "setting": "[1]", "result": 11, "unit": "nM"}
    ]},
    {"compound": "COc1cc2c(cc1-c1ccccc1C#N)-c1c(-c3cccs3)nc(C(=O)N(C)C(C)(C)C)n1CC2", "note": "[Example 2j, 9-(2-Cyano-phenyl)-8-methoxy-1-thiophen-2-yl-5,6-dihydro-imidazo[5,1-a]isoquinoline-3-carboxylic acid tert-butyl-methyl-amide]", "values": [
      {"measurement": "EC50", "setting": "[1]", "result": 5, "unit": "nM"}
    ]},
    {"compound": "COc1cc2c(cc1NC(=O)c1nccs1)-c1c(-c3cccs3)nc(C(=O)N(C)C(C)(C)C)n1CC2", "note": "[Example 10, 8-Methoxy-9-[(thiazole-2-carbonyl)-amino]-1-thiophen-2-yl-5,6-dihydro-imidazo[5,1-a]isoquinoline-3-carboxylic acid tert-butyl-methyl-amide]", "values": [
      {"measurement": "EC50", "setting": "[1]", "result": 12, "unit": "nM"}
    ]},
    {"compound": "COc1cc2c(cc1OC)-c1c(-c3cccs3)nc(C(=O)N(CCO)C(C)C)n1CC2", "note": "[Example 25, 8,9-Dimethoxy-1-thiophen-2-yl-5,6-dihydro-imidazo[5,1-a]isoquinoline-3-carboxylic acid (2-hydroxy-ethyl)-isopropyl-amide]", "values": [
      {"measurement": "EC50", "setting": "[1]", "result": 138, "unit": "nM"}
    ]},
    {"compound": "COc1cc2ccn3c(C(=O)N(C)C(C)(C)C)nc(-c4cccs4)c3c2cc1-c1cnn(C)c1", "note": "[Example 17b, 8-Methoxy-9-(1-methyl-1H-pyrazol-4-yl)-1-thiophen-2-yl-imidazo[5,1-a]isoquinoline-3-carboxylic acid tert-butyl-methyl-amide]", "values": [
      {"measurement": "EC50", "setting": "[1]", "result": 23, "unit": "nM"}
    ]},
    {"compound": "COc1cc2c(cc1OC)-c1c(-c3ccccc3)nc(C(=O)N3CCCCCC3)n1CC2", "note": "[Example 49d, Azepan-1-yl-(8,9-dimethoxy-1-phenyl-5,6-dihydro-imidazo[5,1-a]isoquinolin-3-yl)-methanone]", "values": [
      {"measurement": "EC50", "setting": "[1]", "result": 630, "unit": "nM"}
    ]},
    {"compound": "COc1cc2c(cc1OC(C)C)-c1c(-c3cncs3)nc(C(=O)N(C)C(C)(C)C)n1CC2", "note": "[Example 47e, 9-Isopropoxy-8-methoxy-1-thiazol-5-yl-5,6-dihydro-imidazo[5,1-a]isoquinoline-3-carboxylic acid tert-butyl-methyl-amide]", "values": [
      {"measurement": "EC50", "setting": "[1]", "result": 6, "unit": "nM"}
    ]},
    {"compound": "COc1cc2c(cc1-c1cccc(F)n1)-c1c(-c3cccs3)nc(C(=O)N(C)C(C)(C)C)n1CC2", "note": "[Example 2c, 9-(6-Fluoro-pyrjdin-2-yl)-8-methoxy-1-thiophen-2-yl-5,6-dihydro-imidazo[5,1-a]iso-quinoline-3-carboxylic acid tert-butyl-methyl-amide]", "values": [
      {"measurement": "EC50", "setting": "[1]", "result": 3, "unit": "nM"}
    ]},
    {"compound": "COc1cc2c(cc1NC(=O)C(C)C)-c1c(-c3cccs3)nc(C(=O)N(C)C(C)(C)C)n1CC2", "note": "[Example 46, 9-Isobutyrylamino-8-methoxy-1-thiophen-2-yl-5,6-dihydro-imidazo[5,1-a]isoquinoline-3-carboxylic acid tert-butyl-methyl-amide]", "values": [
      {"measurement": "EC50", "setting": "[1]", "result": 148, "unit": "nM"}
    ]},
    {"compound": "COc1cc2c(cc1-c1cccnc1)-c1c(-c3cccs3)nc(C(=O)N(C)C(C)(C)C)n1CC2", "note": "[Example 2a]", "values": [
      {"measurement": "EC50", "result": 1, "unit": "nM"}
    ]},
    {"compound": "COc1cc2c(cc1-c1c(C)noc1C)-c1c(-c3cccs3)nc(C(=O)N(C)C(C)(C)C)n1CC2", "note": "[Example 2m, 9-(3,5-Dimethyl-isoxazol-4-yl)-8-methoxy-1-thiophen-2-yl-5,6-dihydro-imidazo[5,1-a]iso-quinoline-3-carboxylic acid tert-butyl-methyl-amide]", "values": [
      {"measurement": "EC50", "setting": "[1]", "result": 9, "unit": "nM"}
    ]},
    {"compound": "COc1cc2c(c(F)c1CC(C)C)-c1c(-c3cccs3)nc(C(=O)N(C)C(C)(C)C)n1CC2", "note": "[Example 48j, 10-Fluoro-9-isobutyl-8-methoxy-1-thiophen-2-yl-5,6-dihydro-imidazo[5,1-a]isoquinoline-3-carboxylic acid tert-butyl-methyl-amide]", "values": [
      {"measurement": "EC50", "setting": "[1]", "result": 7, "unit": "nM"}
    ]},
    {"compound": "COc1cc2c(cc1-c1cccc(F)c1)-c1c(-c3cccs3)nc(C(=O)N(C)C(C)(C)C)n1CC2", "note": "[Example 2i, 9-(3-Fluoro-phenyl)-8-methoxy-1-thiophen-2-yl-5,6-dihydro-imidazo[5,1-a]isoquinoline-3-carboxylic acid tert-butyl-methyl-amide]", "values": [
      {"measurement": "EC50", "setting": "[1]", "result": 3, "unit": "nM"}
    ]},
    {"compound": "COc1cc2c(cc1-c1cccc(S(C)(=O)=O)c1)-c1c(-c3cccs3)nc(C(=O)N(C)C(C)(C)C)n1CC2", "note": "[Example 2p, 9-(3-Methanesulfonyl-phenyl)-8-methoxy-1-thiophen-2-yl-5,6-dihydro-imidazo[5,1-a]iso-quinoline-3-carboxylic acid tert-butyl-methyl-amide]", "values": [
      {"measurement": "EC50", "setting": "[1]", "result": 15, "unit": "nM"}
    ]},
    {"compound": "COc1cc2c(cc1NC(=O)c1cccnc1)-c1c(-c3cccs3)nc(C(=O)N(C)C(C)(C)C)n1CC2", "note": "[Example 9, 8-Methoxy-9-[(pyridine-3-carbonyl)-amino]-1-thiophen-2-yl-5,6-dihydro-imidazo[5,1-a]isoquinoline-3-carboxylic acid tert-buyl-methyl-amide]", "values": [
      {"measurement": "EC50", "setting": "[1]", "result": 224, "unit": "nM"}
    ]},
    {"compound": "CCc1nnc(NC(=O)c2cc3c(cc2OC)CCn2c(C(=O)N(C)C(C)(C)C)nc(-c4cccs4)c2-3)s1", "note": "[Example 4, 8-Methoxy-1-thiophen-2-yl-5,6-dihydro-imidazo[5,1-a]isoquinoline-3,9-dicarboxylic acid 3-(tert-butyl-methyl-amide) 9-[(5-ethyl-[1,3,4]thiadiazol-2-yl)-amide]]", "values": [
      {"measurement": "EC50", "setting": "[1]", "result": 58, "unit": "nM"}
    ]},
    {"compound": "COCOc1cc2c(cc1OC)CCn1c(C(=O)N(C)C(C)(C)C)nc(-c3cccs3)c1-2", "note": "[Example 35b, 8-Methoxy-9-methoxymethoxy-1-thiophen-2-yl-5,6-dihydro-imidazo[5,1-a]isoquinoline-3-carboxylic acid tert-butyl-methyl-amide]", "values": [
      {"measurement": "EC50", "setting": "[1]", "result": 19, "unit": "nM"}
    ]},
    {"compound": "COc1cc2c(cc1N)-c1c(-c3cccs3)nc(C(=O)N(C)C(C)(C)C)n1CC2", "note": "[Example 6b, 9-Amino-8-methoxy-1-thiophen-2-yl-5,6-dihydro-imidazo[5,1-a]isoquinoline-3-carboxylic acid tert-butyl-methyl-amide]", "values": [
      {"measurement": "EC50", "setting": "[1]", "result": 740, "unit": "nM"}
    ]},
    {"compound": "CCN(C(=O)c1nc(-c2cccs2)c2n1CCc1cc(OC)c(OCCO)cc1-2)C(C)(C)C", "note": "[Example 34b, 9-(2-Hydroxy-ethoxy)-8-methoxy-1-thiophen-2-yl-5,6-dihydro-imidazo[5,1-a]isoquinoline-3-carboxylic acid tert-butyl-ethyl-amide]", "values": [
      {"measurement": "EC50", "setting": "[1]", "result": 3, "unit": "nM"}
    ]},
    {"compound": "COc1cc2c(cc1C=C(F)F)-c1c(-c3cccs3)nc(C(=O)N(C)C(C)(C)C)n1CC2", "note": "[Example 39, 9-(2,2-Difluoro-vinyl)-8-methoxy-1-thiophen-2-yl-5,6-dihydro-imidazo[5,1-a]isoquinoline-3-carboxylic acid tert-butyl-methyl-amide]", "values": [
      {"measurement": "EC50", "setting": "[1]", "result": 22, "unit": "nM"}
    ]}
  ]
}
